Results as given in article PMC11750451, “Diarylamidine activation of a brachiopod DEG/ENaC/ASIC channel” (The Journal of Biological Chemistry, 2024).
“Also recorded” adds a separate entry of the source. Read-outs that look alike come from different tables or passages of the source.

Experiments:
[1] = target: DiaaNaC (diarylamidine-activated Na+ channel) (Novocrania anomala, UniProt A0AAU8BSW0); assay: Two-electrode voltage clamp of Xenopus laevis oocytes expressing WT DiaaNaC; format: cell-based; settings: for inward currents in absence of extracellular Na+: 1 mM compound, 140 KCl instead of NaCl; for activation of DiaaNaC (agonist activity): compound at 1 mM; for reversal potential (Erev) of pentamidine-gated current: n = 5
Sequence of DiaaNaC (diarylamidine-activated Na+ channel) (A0AAU8BSW0 entry or part of it): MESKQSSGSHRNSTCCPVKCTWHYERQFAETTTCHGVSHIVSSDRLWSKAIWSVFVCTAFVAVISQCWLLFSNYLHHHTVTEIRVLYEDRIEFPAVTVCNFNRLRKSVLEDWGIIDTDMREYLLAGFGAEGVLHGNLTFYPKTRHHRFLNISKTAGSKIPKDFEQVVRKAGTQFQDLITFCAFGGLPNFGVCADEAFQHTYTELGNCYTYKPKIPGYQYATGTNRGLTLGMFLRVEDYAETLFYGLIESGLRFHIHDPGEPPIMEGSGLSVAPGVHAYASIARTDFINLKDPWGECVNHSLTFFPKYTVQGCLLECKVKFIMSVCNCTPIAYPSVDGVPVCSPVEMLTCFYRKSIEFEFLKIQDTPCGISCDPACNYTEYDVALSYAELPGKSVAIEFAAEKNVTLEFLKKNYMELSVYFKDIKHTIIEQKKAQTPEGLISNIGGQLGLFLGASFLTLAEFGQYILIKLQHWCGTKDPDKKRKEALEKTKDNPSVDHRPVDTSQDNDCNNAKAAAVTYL
Procedure: (§1) Before electrophysiological recordings or surface expression determination, the oocytes were cultured for 3 days at 18 °C in 50% Leibowitz medium (L1518, Merck), supplemented with 0.25 mg/ml gentamicin, 1 mM L-glutamine, and 15 mM Hepes (pH 7.6). For surface expression detection, mouse anti-Myc tag monoclonal IgG1 antibody (MA121316, Fisher Scientific) was used to detect the myc tag attached to the 3′-end of all the constructs used in this work, and the protocol previously used in our lab was followed ([47]) using a Zeiss Axio Scope A1 microscope. The intensity of the expression signal was quantified by tracing a perpendicular line across the oocyte membrane and measuring the gray values with ImageJ software ([48]).
Whole cell currents were recorded from oocytes by two-electrode voltage clamp using an OC-725D amplifier (Warner Instruments) controlled via an Axon Digitata 1550B interface and pClamp v11 (Molecular Devices), acquired at 1 kHz, and filtered at 200 Hz. Currents were analyzed in pClamp v10.7 software (Molecular Devices) and additionally filtered at 10 Hz for display in figures. Oocytes were clamped at −60 mV, unless otherwise indicated, and continuously perfused with a bath solution containing (in mM): 140 NaCl, 1.8 BaCl2, and 10 Hepes. The pH was adjusted to 7.5 with NaOH, HCl, or KOH, as appropriate. For current–voltage relationships where K^+ replaced Na^+, KCl replaced NaCl in the above bath solution. In most experiments, activating solution was applied to oocytes in between resting periods of at least 30 to 60 s. After retrieving current amplitude from pClamp, all data were analyzed in Prism v9 (GraphPad Software). Currents were normalized by dividing by the maximum current at that oocyte, giving “I/Imax” in most concentration–response graphs. For graphs in figures and for calculating half-maximal effective (or inhibitory) concentration (EC50 or IC50) values, variable slope nonlinear regression was used in Prism v9, with the equation Y = Bottom + (Top-Bottom)/ […] 10^∧((LogEC50-X)∗HillSlope)), and maximum was constrained to one and minimum to zero. Curves in figures are fit to the mean data points. EC50 and IC50 values reported in text and used in statistical comparisons are means from curve fits to data on individual oocytes.

[2] = test system: DiaaNaC G6′S; assay: Two-electrode voltage clamp, DiaaNaC G6′S mutant in oocytes; format: cell-based, Novocrania anomala
Source text: (§2) The DiaaNaC full-length coding sequence was amplified by PCR from N. anomala cDNA and subcloned via SalI and BamHI sites into a pSP64 (polyA) vector (P1241, Promega) modified to contain the X. laevis globin 5′ and 3′ UTRs and a C-terminal Myc-tag linked to the final DiaaNaC residue via Gly-Ser linker (the BamHI site) (see ([20]) for full vector sequence). The cDNA sequence was deposited in NCBI GenBank accession number PP942623. Recombinant PCR with Phusion High-Fidelity DNA polymerase (F-549L, Thermo Fisher Scientific) was used to perform site-directed mutagenesis, as described previously ([45]). […] EcoRI (FD0274, Thermo Fisher Scientific) was used to linearize the cDNAs via a site shortly after the poly(A) sequence, and the mMESSAGE mMACHINE SP6 Transcription Kit (AM1340, Thermo Fisher Scientific) was used to synthesize cRNA.
as §1
(§3) Whole cell currents were recorded from oocytes by two-electrode voltage clamp using an OC-725D amplifier (Warner Instruments) controlled via an Axon Digitata 1550B interface and pClamp v11 (Molecular Devices), acquired at 1 kHz, and filtered at 200 Hz. Currents were analyzed in pClamp v10.7 software (Molecular Devices) and additionally filtered at 10 Hz for display in figures. […] After retrieving current amplitude from pClamp, all data were analyzed in Prism v9 (GraphPad Software). […]

[3] = test system: DiaaNaC L70S; assay: Two-electrode voltage clamp, DiaaNaC L70S mutant in oocytes; format: cell-based, Novocrania anomala; settings: 0 mV
Source text: The DiaaNaC full-length coding sequence was amplified by PCR from N. anomala cDNA and subcloned via SalI and BamHI sites into a pSP64 (polyA) vector (P1241, Promega) modified to contain the X. laevis globin 5′ and 3′ UTRs and a C-terminal Myc-tag linked to the final DiaaNaC residue via Gly-Ser linker (the BamHI site) (see ([20]) for full vector sequence). The cDNA sequence was deposited in NCBI GenBank accession number PP942623. Recombinant PCR with Phusion High-Fidelity DNA polymerase (F-549L, Thermo Fisher Scientific) was used to perform site-directed mutagenesis, as described previously ([45]). […]
Before electrophysiological recordings or surface expression determination, the oocytes were cultured for 3 days at 18 °C in 50% Leibowitz medium (L1518, Merck), supplemented with 0.25 mg/ml gentamicin, 1 mM L-glutamine, and 15 mM Hepes (pH 7.6). […] The intensity of the expression signal was quantified by tracing a perpendicular line across the oocyte membrane and measuring the gray values with ImageJ software ([48]).
Whole cell currents were recorded from oocytes by two-electrode voltage clamp using an OC-725D amplifier (Warner Instruments) controlled via an Axon Digitata 1550B interface and pClamp v11 (Molecular Devices), acquired at 1 kHz, and filtered at 200 Hz. Currents were analyzed in pClamp v10.7 software (Molecular Devices) and additionally filtered at 10 Hz for display in figures. […]

[4] = test system: DiaaNaC E82A; assay: Two-electrode voltage clamp, DiaaNaC E82A mutant in oocytes; format: cell-based, Novocrania anomala
Source text: as §2, §1, §3

[5] = test system: DiaaNaC E358A; assay: Two-electrode voltage clamp, DiaaNaC E358A mutant in oocytes; format: cell-based, Novocrania anomala
Source text: as §2, §1, §3

**Q.** For `N=C(N)c1ccc(-c2cc3ccc(C(=N)N)cc3[nH]2)cc1` [DAPI, 4′,6-diamidino-2-phenylindole], which “inward currents in absence of extracellular Na+” value ([1]; −60 mV) is on record?
**A.** The value was “tiny, if any”.

**Q.** `Cc1nc(N=C(N)N)nc2ccccc12` [GMQ, 2-(4-methylquinazolin-2-yl)guanidine] was tested. Which “activation of DiaaNaC (agonist activity)” value ([1]; −60 mV) did it give?
**A.** The value was “none of these compounds activated”.

**Q.** Which current activated ([1]; UDCA 2 mM, −60 mV, n = 7) does the source give for `C[C@H](CCC(=O)O)[C@H]1CC[C@H]2[C@@H]3[C@@H](O)C[C@@H]4C[C@H](O)CC[C@]4(C)[C@H]3CC[C@]12C` [Ursodeoxycholic acid, ursodeoxycholic acid] here?
**A.** The current activated was 73.1 ± 10 nA.

**Q.** For `NC(N)=NCCCCN=C(N)N` [arcaine], which “activation of DiaaNaC (agonist activity)” value ([1]; −60 mV) is on record?
**A.** The value was “neither activated; also recorded: none of these compounds activated”.

**Q.** How did the “diminazene potency compared to WT” value ([2]; 0 mV) turn out when `N=C(N)c1ccc(/N=N/Nc2ccc(C(=N)N)cc2)cc1` [diminazene] was run?
**A.** Its value is “significantly reduced”.

**Q.** What about the “diminazene agonist potency compared to WT” value ([2]; −60 mV) of the same compound?
**A.** Its value is “decrease in agonist potency”.

**Q.** And the “channel block by diminazene” value ([2]; −60 mV, even at 3 mM diminazene)?
**A.** The value was “block was not evident”.

**Q.** And the “inward currents in absence of extracellular Na+” value ([1]; −60 mV)?
**A.** The value was “tiny, if any”.

**Q.** What about the “concentration that activates DiaaNaC” value ([1]; WT) of the same compound?
**A.** Its value is no less than 300 µM.

**Q.** And the “concentration that blocks DiaaNaC” value ([1]; WT)?
**A.** The value was no less than 1 mM.

**Q.** And the “effect on constitutive current” value ([1]; diminazene 1 mM, absence of Ca2+)?
**A.** The value was “without inhibiting the constitutive current”.

**Q.** And the inward currents activated ([1]; diminazene 1 mM, absence of Ca2+, −60 mV, n = 7)?
**A.** The inward currents activated was 1.0 ± 0.2 μA.

**Q.** What about the EC50 ([1]; holding potential 0 mV, WT, read-out: diminazene EC50 for activation) of the same compound?
**A.** The EC50 was 409 ± 71 µM.

**Q.** What about the EC50 ([1]; −60 mV, absence of Ca2+, WT, read-out: EC50 for activation of DiaaNaC) of the same compound?
**A.** Its EC50 is 287 µM.

**Q.** What about the inhibition at 1000 µM ([1]; −100 mV, 1 mM diminazene, read-out: block of the agonist-gated current) of the same compound?
**A.** The inhibition at 1000 µM was roughly 100%.

**Q.** And the diminazene-gated currents [3]?
**A.** Its diminazene-gated currents is “abolished”.

**Q.** What about the “diminazene potency compared to WT” value ([4]; 0 mV) of the same compound?
**A.** The value was “significantly reduced”.

**Q.** And the “diminazene agonist potency compared to WT” value ([4]; −60 mV)?
**A.** Its value is “decrease in agonist potency”.

**Q.** What about the “channel block by diminazene” value ([4]; −60 mV, 1 and 3 mM diminazene) of the same compound?
**A.** Its value is “noticeable block develops”.

**Q.** What about the “diminazene potency compared to WT” value ([5]; 0 mV) of the same compound?
**A.** Its value is “significantly reduced”.

**Q.** And the “diminazene agonist potency compared to WT” value ([5]; −60 mV)?
**A.** The value was “decrease in agonist potency”.

**Q.** What about the “diminazene concentration at which block occurs” value ([5]; −60 mV) of the same compound?
**A.** The value was 3 mM.

**Q.** Which results are given for `N=C(N)c1ccc(OCCCCCOc2ccc(C(=N)N)cc2)cc1` [pentamidine]?
**A.** reversal potential (Erev) of pentamidine-gated current ([1]; 150 μM pentamidine, extracellular NaCl): 53.5 ± 5.0 mV; reversal potential (Erev) of pentamidine-gated current ([1]; 450 μM pentamidine, extracellular NaCl): 57.6 ± 3.4 mV; pentamidine EC50 in the presence of amiloride ([1]; 600 μM amiloride): not significantly altered; EC50 ([1]; EC50 for activation of DiaaNaC, −60 mV, absence of Ca2+, WT): 592 ± 30.7 µM; reversal potential (Erev) of pentamidine-gated current ([1]; K+ the only monovalent cation in extracellular solution, pentamidine 450 μM, estimated): −12.2 ± 4.6 mV; EC50 ([1]; pentamidine EC50, +10 mV, n = 4): 959 ± 80.7 µM; EC50 ([1]; pentamidine EC50, +80 mV, n = 4): 1030 ± 101 µM; EC50 ([1]; pentamidine EC50, −100 mV): 471 ± 38.4 µM; EC50 ([1]; pentamidine EC50 with Ca2+, 1.8 mM Ca2+, n = 6): 1000 ± 100 µM; block of the agonist-gated current ([1]; −100 mV, 1 mM pentamidine): no such block

**Q.** How did the “activation of DiaaNaC (agonist activity)” value ([1]; −60 mV) turn out when `NCCCCNCCCN` [spermidine] was run?
**A.** Its value is “neither activated”.

**Q.** With `NCCCNCCCCNCCCN` [spermine] as the compound, how does the “activation of DiaaNaC (agonist activity)” value ([1]; −60 mV) read?
**A.** Its value is “neither activated; also recorded: none of these compounds activated”.
